Converted amounts (≈) assume the structure as drawn.
Assays:
[1] = test system: B. catarrhalis W-0500; assay: Antimicrobial activities (MIC, agar dilution); format: cell-based; settings: Moraxella catarrhalis, W0500, Sensitivity Disk agar-N+5% Horse blood, 10^6 CFU/ml, read-out: minimum inhibiting concentrations (MIC)
Description: (§1) The minimum inhibiting concentrations (MIC, μg/ml) of representative compounds, among the novel carbapenem derivatives of the present invention, to various pathogenic bacteria were measured in accordance with the method described in CHEMOTHERAPY, vol. 16, No. 1, 99, 1968. The culture medium for the measurement is Sensitivity Disk agar-N+5% Horse blood, and the amount of inoculants used is 10^6 CFU/ml.

[2] = test system: E. coli NIHJ JC-2; assay: Antimicrobial activities (MIC, agar dilution); format: cell-based; settings: Escherichia coli, NIHJJC2, Sensitivity Disk agar-N+5% Horse blood, 10^6 CFU/ml, read-out: minimum inhibiting concentrations (MIC)
Description: as §1

[3] = test system: E. faecalis W-73; assay: Antimicrobial activities (MIC, agar dilution); format: cell-based; settings: Enterococcus faecalis, W73, Sensitivity Disk agar-N+5% Horse blood, 10^6 CFU/ml, read-out: minimum inhibiting concentrations (MIC)
Description: as §1

[4] = test system: E. hirae ATCC 8043; assay: Antimicrobial activities (MIC, agar dilution); format: cell-based; settings: Enterococcus hirae, ATCC8043, Sensitivity Disk agar-N+5% Horse blood, 10^6 CFU/ml, read-out: minimum inhibiting concentrations (MIC)
Description: as §1

[5] = test system: H. influenzae PRC 2; assay: Antimicrobial activities (MIC, agar dilution); format: cell-based; settings: Haemophilus influenzae, PRC2, Sensitivity Disk agar-N+5% Horse blood, 10^6 CFU/ml, read-out: minimum inhibiting concentrations (MIC)
Description: as §1

[6] = test system: H. influenzae PRC 44; assay: Antimicrobial activities (MIC, agar dilution); format: cell-based; settings: Haemophilus influenzae, PRC44, Sensitivity Disk agar-N+5% Horse blood, 10^6 CFU/ml, read-out: minimum inhibiting concentrations (MIC)
Description: as §1

[7] = test system: K. pneumoniae PC 1602; assay: Antimicrobial activities (MIC, agar dilution); format: cell-based; settings: Klebsiella pneumoniae, PC1602, Sensitivity Disk agar-N+5% Horse blood, 10^6 CFU/ml, read-out: minimum inhibiting concentrations (MIC)
Description: as §1

[8] = test system: P. vulgaris GN 7919; assay: Antimicrobial activities (MIC, agar dilution); format: cell-based; settings: Proteus vulgaris, GN7919, Sensitivity Disk agar-N+5% Horse blood, 10^6 CFU/ml, read-out: minimum inhibiting concentrations (MIC)
Description: as §1

[9] = test system: S. aureus 209P JC-1; assay: Antimicrobial activities (MIC, agar dilution); format: cell-based; settings: Staphylococcus aureus, Sensitivity Disk agar-N+5% Horse blood, 10^6 CFU/ml, read-out: minimum inhibiting concentrations (MIC)
Description: as §1

[10] = test system: S. aureus M 126; assay: Antimicrobial activities (MIC, agar dilution); format: cell-based; settings: Staphylococcus aureus, M126; S. aureus M 126, Methicillin-hyperresistant strain; Sensitivity Disk agar-N+5% Horse blood; 10^6 CFU/ml; read-out: minimum inhibiting concentrations (MIC)
Description: as §1

[11] = test system: S. epidermidis ATCC 14990; assay: Antimicrobial activities (MIC, agar dilution); format: cell-based; settings: Staphylococcus epidermidis, ATCC14990, Sensitivity Disk agar-N+5% Horse blood, 10^6 CFU/ml, read-out: minimum inhibiting concentrations (MIC)
Description: as §1

[12] = test system: S. pneumoniae PRC 9; assay: Antimicrobial activities (MIC, agar dilution); format: cell-based; settings: Streptococcus pneumoniae, PRC9; S. pneumoniae PRC 9, Penicillin-hyperresistant strain; Sensitivity Disk agar-N+5% Horse blood; 10^6 CFU/ml; read-out: minimum inhibiting concentrations (MIC)
Description: as §1

[13] = test system: C. freundii GN 346; assay: Antimicrobial activities (MIC, agar dilution); format: cell-based; settings: Citrobacter freundii, GN346, Sensitivity Disk agar-N+5% Horse blood, 10^6 CFU/ml, read-out: minimum inhibiting concentrations (MIC)
Description: as §1

[14] = test system: mice (ICR, male); assay: Acute toxicity test; format: in vivo; settings: intravenous, 2000 mg/kg, three mice
Description: The compound of Example 5 according to the present invention was intraveneously administered at a dose of 2000 mg/kg to mice (ICR, male) (one group consisting of three mice).

SMILES	MIC [1] [µg/mL]	MIC [2] [µg/mL]	MIC [3] [µg/mL]	MIC [4] [µg/mL]	MIC [5] [µg/mL]	MIC [6] [µg/mL]	MIC [7] [µg/mL]	MIC [8] [µg/mL]	MIC [9] [µg/mL]	MIC [10] [µg/mL]	MIC [11] [µg/mL]	MIC [12] [µg/mL]	MIC [13] [µg/mL]	acute toxicity: survival [14]
C[C@@H](O)[C@H]1C(=O)N2C(C(=O)[O-])=C(c3cn4cnc(SCCF)c4s3)[C@H](C)[C@H]12.[Na+] [Example 14, Sodium (1S,5R,6S)-2-[7-(2-fluoroethyl)thioimidazo[5,1-b]thiazol-2-yl]-6-((1R)-1-hydroxyethyl)-1-methyl-1-carbapen-2-em-3-carboxylate]	0.1	1.56	0.2	0.2	< 0.025	0.025	1.56	0.78	< 0.025	0.78	< 0.025	0.05		
C[C@@H](O)[C@H]1C(=O)N2C(C(=O)[O-])=C(c3cn4cnc(SCCN)c4s3)[C@H](C)[C@H]12.[Na+] [Example 5, Sodium (1S,5R,6S)-2-[7-(2-aminoethyl)thioimidazo[5,1-b]thiazol-2-yl]-6-((1R)-1-hydroxyethyl)-1-methyl-1-carbapen-2-em-3-carboxylate]	0.05	0.1	0.2	0.39	0.05	0.2	0.1	0.2	< 0.025	1.56	< 0.025	0.05	1.56	all the mice survived
C[C@@H](O)[C@H]1C(=O)N2C(C(=O)[O-])=C(c3cn4cnc(SCCNC(=N)N)c4s3)[C@H](C)[C@H]12.[Na+] [Example 20, Sodium (1S,5R,6S)-2-[7-(2-guanidinoethyl)thioimidazo[5,1-b]thiazol-2-yl]-6-((1R)-1-hydroxyethyl)-1-methyl-1-carbapen-2-em-3-carboxylate]	0.05	0.2	0.2	0.2	0.05	0.1	0.39	0.39	< 0.025	0.78	< 0.025	0.05	1.56	
C[C@@H](O)[C@H]1C(=O)N2C(C(=O)O)=C(SCCN=CN)C[C@H]12 [Compound A, Imipenem, reference compound]	0.05 (≈ 0.167 µM)	0.1 (≈ 0.334 µM)	0.78 (≈ 2.61 µM)	0.78 (≈ 2.61 µM)	0.78 (≈ 2.61 µM)	12.5 (≈ 41.8 µM)	0.2 (≈ 0.668 µM)	0.1 (≈ 0.334 µM)	< 0.025	25 (≈ 83.5 µM)	< 0.025	0.2 (≈ 0.668 µM)	0.2 (≈ 0.668 µM)	
C[C@@H](O)[C@H]1C(=O)N2C(C(=O)[O-])=C(c3cn4cncc4s3)[C@H](C)[C@H]12.[Na+] [Compound B, Sodium (1S,5R,6S)-6-((1R)-1-hydroxyethyl)-2-(imidazo[5,1-b]thiazol-2-yl)-1-methyl-1-carbapen-2-em-3-carboxylate, reference compound]	0.1	0.2	0.39	0.39	< 0.025	0.2	0.1	0.1	< 0.025	6.25	< 0.025	0.2	1.56	

— US6680313B2, “Carbapenum derivatives” (Meiji Seika Kaisha, Ltd., priority 2000, dated 2004)
